Data: the supplement of paper PMC10307832

Tests used:
Assay in all cases: relative viability (nuclei count vs DMSO), 5 days (fraction); higher = more cells survive
Bexarotene = compound: C=C(c1ccc(C(=O)O)cc1)c1cc2c(cc1C)C(C)(C)CCC2(C)C [Bexarotene]
Outline: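 Viability is treated-well nuclei as a fraction of vehicle-well nuclei, reported as the median across plates. Before counting, lung cancer cell lines were kept overnight at 37 °C in 1536-well plates, pinned with five √10-spaced library-drug doses on vehicle-anchored plates, and left 5 days without medium change, then fixed, permeabilised and Hoechst-stained in one step, imaged at 4× and counted by MetaXpress. A plate passed only if control CV was below 25% and at least one doubling occurred.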

Bexarotene + Trametinib = compound: C=C(c1ccc(C(=O)O)cc1)c1cc2c(cc1C)C(C)(C)CCC2(C)C [Bexarotene] + CC(=O)Nc1cccc(-n2c(=O)n(C3CC3)c(=O)c3c(Nc4ccc(I)cc4F)n(C)c(=O)c(C)c32)c1 [Trametinib] (partner 0.02 µM)
Outline: (§1)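 Each reported value is a median over duplicate plates. It expresses relative viability: treated-well nuclei count divided by vehicle-well nuclei count. Lung cancer cell lines in 1536-well plates were dosed by pin tool a day after seeding, alone with one drug or with a fixed anchor-drug dose plus five library-drug doses (not always all listed) in √10 steps, and nuclei were counted after 5 days.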

Bexarotene + Phenformin = compound: C=C(c1ccc(C(=O)O)cc1)c1cc2c(cc1C)C(C)(C)CCC2(C)C [Bexarotene] + N=C(N)NC(=N)NCCc1ccccc1 [Phenformin] (partner 250 µM)
Outline: as §1

Bexarotene + Olaparib = compound: C=C(c1ccc(C(=O)O)cc1)c1cc2c(cc1C)C(C)(C)CCC2(C)C [Bexarotene] + O=C(c1cc(Cc2n[nH]c(=O)c3ccccc23)ccc1F)N1CCN(C(=O)C2CC2)CC1 [Olaparib] (partner 8 µM)
Outline: as §1

Cell Line	relative viability (Bexarotene; 0.08 µM)	relative viability (Bexarotene; 0.253 µM)	relative viability (Bexarotene; 0.8 µM)	relative viability (Bexarotene; 2.53 µM)	relative viability (Bexarotene; 8 µM)	relative viability (Bexarotene + Trametinib; first compound 0.08 µM)	relative viability (Bexarotene + Trametinib; first compound 0.253 µM)	relative viability (Bexarotene + Trametinib; first compound 0.8 µM)	relative viability (Bexarotene + Trametinib; first compound 2.53 µM)	relative viability (Bexarotene + Trametinib; first compound 8 µM)	relative viability (Bexarotene + Phenformin; first compound 0.08 µM)	relative viability (Bexarotene + Phenformin; first compound 0.253 µM)	relative viability (Bexarotene + Phenformin; first compound 0.8 µM)	relative viability (Bexarotene + Phenformin; first compound 2.53 µM)	relative viability (Bexarotene + Phenformin; first compound 8 µM)	relative viability (Bexarotene + Olaparib; first compound 0.08 µM)	relative viability (Bexarotene + Olaparib; first compound 0.253 µM)	relative viability (Bexarotene + Olaparib; first compound 0.8 µM)	relative viability (Bexarotene + Olaparib; first compound 2.53 µM)	relative viability (Bexarotene + Olaparib; first compound 8 µM)
HCC-44	0.981	1.02	0.889	0.976	0.932	1.02	1.03	0.884	0.899	1.08	0.148	0.409	0.27	0.145	0.289	1.07	1.11	1.05	1.03	1.05
NCI-H460	1.04	0.976	0.986	0.944	0.946	0.153	0.155	0.13	0.199	0.177	0.552	0.543	0.494	0.455	0.427	0.54	0.568	0.409	0.536	0.492
SK-LU-1	1.2	1.13		1.04	0.936	0.548	0.587		0.579	0.517	0.633	0.667		0.417	0.387	0.557	0.43		0.417	0.399
SW 900	0.874	0.948	0.726	0.684	0.888	0.635	0.846	0.85	0.81	0.647	0.643	0.64	0.598	0.46	0.572	0.936	0.733	1.11	0.866	0.863
NCI-H322M	1.08	1.03	0.937	0.988	1.01	0.578	0.443	0.534	0.501	0.508	0.969	0.825	0.814	0.775	0.789	0.771	0.826	0.788	0.834	0.871
EKVX	0.974	0.98	0.97	1.02	0.891	0.291	0.359	0.355	0.372	0.295	0.257	0.263	0.224	0.233	0.233	0.838	0.993	0.947	0.946	0.948
NCI-H1734	1.04	0.966	0.989	0.881	0.879	0.69	0.732	0.642	0.589	0.57	0.414	0.339	0.421	0.335	0.382	0.669	0.648	0.573	0.709	0.633
NCI-H522	1.14	0.872	0.957	0.816	1.02	0.736	0.805	0.74	0.797	0.736	0.612	0.521	0.591	0.518	0.626	0.666	0.66	0.635	0.564	0.675
NCI-H520	1.06	0.869	0.865	0.852	0.972	0.668	0.63	0.742	0.662	0.643	0.643	0.485	0.514	0.445	0.417	0.368	0.347	0.313	0.316	0.332
EPLC-272H	1	0.93	0.802	0.881	0.939	0.318	0.277	0.285	0.322	0.314	0.304	0.27	0.313	0.3	0.373	0.824	0.773	0.641	0.758	0.845
UMC-11	0.976	0.952	0.917	0.917	0.963	0.638	0.668	0.623	0.634	0.658	0.372	0.327	0.314	0.301	0.295	0.387	0.425	0.525	0.353	0.37
NCI-H1792	0.904	0.886	0.672	0.632	0.769	0.677	0.46	0.442	0.493	0.345	0.276	0.214	0.166	0.135	0.119	0.229	0.435	0.393	0.337	0.32
NCI-H1993	1.09	0.919	0.788	0.862	0.832	0.547	0.541	0.507	0.395	0.544	0.527	0.553	0.572	0.576	0.557	0.979	1.08	0.94	1.01	0.896
NCI-H596	0.956	0.848	0.957	0.994	0.919	0.862	0.876	0.654	0.762	0.802	0.811	0.743	0.747	0.828	0.776	0.715	0.679	0.85	0.672	0.817
NCI-H1793	1.12	0.93	0.754	0.838	0.881	0.395	0.4	0.415	0.397	0.408	0.51	0.386	0.36	0.37	0.358	1.06	0.966	0.787	0.903	0.695
NCI-H1395	1.06	0.905	1.01	0.75	0.957	1.18	1.03	1.15	0.908	1.1	0.456	0.457	0.412	0.415	0.471	0.441	0.543	0.476	0.459	0.504
